Experimental data from patent publication US10787413B2, “Derivatives of curcuminoids and use thereof as an anticancer agent” (CHINA MEDICAL UNIVERSITY, priority 2016, dated 2020).
Like-named read-outs stand apart in the source and are kept apart here.

Tests used:
SKBR-3 = assay: Cell viability, SKBR-3 breast cancer cells; assay type: cell-based; conditions: Homo sapiens, SK-BR-3; SKBR-3 (Her-2+), treated for 24 h
Description: (§1) Cell viability was evaluated by measuring the reduction in MTT to yield blue formazan. Cells were cultured in 96-well plates, allowed to attach overnight, and then treated with compounds. After treatment, MTT solution (1 mg/ml) was added to each well, and plates were incubated for another 4 h. Medium were removed, blue formazan was dissolved in DMSO, and the absorbance was read at 570 nm^20.

MDA-MB-231 Xenograft = assay: In vivo antitumor activity, MDA-MB-231 Xenograft nude mice model
Description: Female nu/nu mice (5 weeks old) were from National Laboratory Animal Center, Taipei, Taiwan. Mice were maintained under the procedures and guidelines from the Institutional Animal Care and Use Committee of the National Health Research Institutes, Taipei, Taiwan. All experiments were supervised under the Institutional Animal Care and Use Committee, China Medical University, Taichung, Taiwan. MDA-MB-231 breast cancer cells (5×10^6 cells per mouse) were suspended in 0.1 ml of Matrigel solution (50% (v/v) Matrigel in PBS) and inoculated into the mammary fat pads of the mice. […] Compounds was administered P.O. once every day for 32 days. Tumor size and mouse body weight were measured once every 4 days, and tumor volume (mm3) was calculated using the equation: length×(width)^2×0.5. At the end of experiments, mice were sacrificed and tumor nodules were dissected and weighed.

MCF-7 = assay: Cell viability, MCF-7 breast cancer cells; assay type: cell-based; conditions: Homo sapiens, MCF7; MCF-7 (ER+/PR+), treated for 24 h
Description: as §1

[1] = Preliminary acute toxicity assay; conditions: 21 days observation
Description: Normal mice were treated with 21a or 35a by oral route at 500 mg/kg/day for 5 consecutive days, following by 21 days of post-treatment observation. […] Detailed data for their toxicology and safety pharmacology studies will be carried out in the near future.
Female nu/nu mice (5 weeks old) were P.O. with vehicle (propylene glycol, 0.1 ml) or high dose of 21a (250 and 500 mg/kg) and 35a (500 mg/kg) for 5 days followed by observation of behavior and lethargy for 21 days.

[2] = tested on: MDA-MB-231 breast cancer cell; assay: MTT cell viability assay, MDA-MB-231 breast cancer cell; assay type: cell-based, human; conditions: for IC50: Homo sapiens
Description: Cell viability was evaluated by measuring the reduction in MTT to yield blue formazan. Cells were cultured in 96-well plates, allowed to attach overnight, and then treated with compounds. After treatment, MTT solution (1 mg/ml) was added to each well, and plates were incubated for another 4 h.

SMILES: COc1cc(/C=C/C(=O)/C=C(O)/C=C/c2ccc(OC(=O)C(C)(CO)CO)c(OC)c2)ccc1OC(=O)C(C)(CO)CO [Compound 21a, ((1E,3Z,6E)-3-Hydroxy-5-oxohepta-1,3,6-triene-1,7-diyl)bis(2-methoxy-4,1-phenylene) bis(3-hydroxy-2-(hydroxymethyl)-2-methylpropenoate)]
- IC50 (SKBR-3): 6.39 ± 0.43 µM
- antitumor activity, fold more potent than curcumin (MDA-MB-231 Xenograft; MDA-MB-231 Xenograft nude mice model): 10 fold
- antitumor activity (MDA-MB-231 Xenograft; PO 5 mg/kg/day): significant antitumor activity
- inhibitory efficacy (MDA-MB-231 Xenograft; PO 10 mg/kg/day): equivalent to 100 mg/kg/day of curcumin
- tumor weight lighter than that of the control group (MDA-MB-231 Xenograft; PO 50 mg/kg/day): 60%
- inhibition of MDA-MB-231 tumor growth (MDA-MB-231 Xenograft; PO 5, 10, 25 and 50 mg/kg/day): dose- and time-dependent inhibition
- body weight, behavior change and blood chemistry (serology detection) (MDA-MB-231 Xenograft; treated vs untreated control group during antitumor evaluation): no significant difference
- IC50 (MCF-7): 6.13 ± 0.51 µM
- behavior and death at end of experiment ([1]; P.O. 21a 250 and 500 mg/kg, 35a 500 mg/kg for 5 days): no behavior alternation and death
- body weight and behavior change ([1]; oral 500 mg/kg/day for 5 consecutive days, vs untreated control): no significant difference
- viability of MDA-MB-231 cells ([2]; 0, 1, 3, 5 and 10 μM, 24 h, concentration-dependent): significantly reduced
- combination effect with Doxorubicin ([2]; 21a in combination with Doxorubicin, MDA-MB-231 cells): Synergistic anticancer effect
- IC50 ([2]; MDA-MB-231, treated 24 hours, read-out: IC50 24 hours): 5.37 ± 1.22 µM
- IC50 ([2]; MDA-MB-231, treated 48 hours, read-out: IC50 48 hours): 3.06 ± 0.18 µM
- IC50 ([2]; MDA-MB-231, treated 72 hours, read-out: IC50 72 hours): 2.67 µM
- times more potent than curcumin (IC50) ([2]; MDA-MB-231, 72 h treatment, curcumin IC50 16.23 μM): 6.2 times
